The source of these data is paper PMC12748375, “Insights into cannabinoid receptor 2 (CB2) anterograde trafficking and pharmacological chaperoning” (Cellular and Molecular Life Sciences: CMLS, 2025).

Test [1] addresses T1, hCB2 wt (Homo sapiens, UniProt P34972).
T1 construct: gene CNR2; full-length (63Q), N-terminal HA tag and three thrombin cleavage sites (HA-3TCS), pcDNA5/FRT, expressed in HEK Flp-in-293 cells
The test is described as follows: receptor internalisation, surface HA immunocytochemistry (Method A). In kind it is cell-based. The note with it: read-out: Method A: Internalisation (3 h) / CB2 wt / pEC50 (± SEM) (converted). An excerpt:
receptor internalisation, surface HA immunocytochemistry (Method A) on hCB2 wt

Test [2] addresses T2, hCB2 wt (Homo sapiens, UniProt P34972, K318E/K319E).
T2 construct: gene CNR2; full-length (63Q), N-terminal HA tag and three thrombin cleavage sites (HA-3TCS), pcDNA5/FRT, expressed in HEK Flp-in-293 cells
The test is described as follows: net surface expression, immunocytochemistry (Method B). In kind it is cell-based. To be noted: read-out: Method B: Net Surface Expression (3 h) / KK mutant / pEC50 (± SEM) (converted).

T2 sequence (P34972 whole entry K318E/K319E): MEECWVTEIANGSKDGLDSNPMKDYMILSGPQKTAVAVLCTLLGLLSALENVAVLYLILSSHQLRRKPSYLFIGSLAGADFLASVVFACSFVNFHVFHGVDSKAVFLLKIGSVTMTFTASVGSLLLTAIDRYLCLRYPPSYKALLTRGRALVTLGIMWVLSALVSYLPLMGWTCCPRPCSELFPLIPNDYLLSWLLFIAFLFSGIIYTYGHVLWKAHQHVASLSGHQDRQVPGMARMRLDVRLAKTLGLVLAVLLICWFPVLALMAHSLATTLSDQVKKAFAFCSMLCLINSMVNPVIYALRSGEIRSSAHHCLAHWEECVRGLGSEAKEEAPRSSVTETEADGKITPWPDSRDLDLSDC
T1 sequence (P34972 whole entry): as the sequence (P34972 whole entry K318E/K319E) above, with E318K, E319K counted along it

As for `CCCCC/C=C\C/C=C\C/C=C\C/C=C\CCCC(=O)OC(CO)CO` [2-AG], the EC50 in test [1] is 741 nM.

With `COc1ccc(C(=O)c2c(C)n(CCN3CCOCC3)c3cc(I)ccc23)cc1` [AM630], in test [2], the EC50 was 513 nM.
